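Cells were grown in 96-well plates and exposed to each compound for 48 hours at five concentrations; endpoints were interpolated linearly between bracketing concentrations, or set to the highest concentration if not reached. TGI: total growth inhibition.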
Experiments:
Assay in all cases: inhibition of tumour cell growth, NCI panel, 48 h
[1] = system: CCRF-CEM leukemia
[2] = system: TK-10 renal
[3] = system: NCI-H460 lung
[4] = system: EKVX NSCLC
[5] = system: OVCAR-5 ovarian
[6] = system: COLO 205 colon
[7] = system: HOP-62 NSCLC
[8] = system: KM20L2 colon
[9] = system: K-562 leukemia
[10] = system: HT29 colon
[11] = system: RPMI-8226 leukemia
[12] = system: OVCAR-4 ovarian
[13] = system: SNB-75 CNS
[14] = system: A549 NSCLC
[15] = system: SNB-19 CNS
[16] = system: SF-539 CNS
[17] = system: 786-0 renal
[18] = system: RXF 393 renal
[19] = system: MOLT-4 leukemia
[20] = system: UO-31 renal
[21] = system: OVCAR-3 ovarian
[22] = system: SN12C renal
[23] = system: XF 498 CNS
[24] = system: A498 renal
[25] = system: LXFL 529 NSCLC
[26] = system: SK-MEL-28 melanoma
[27] = system: LOX IMVI melanoma
[28] = system: SK-MEL-2 melanoma
[29] = system: RXF-631 renal
[30] = system: HCT-116 colon
[31] = system: UACC-257 melanoma
[32] = system: SNB-78 CNS
[33] = system: DMS 114 small cell lung
[34] = system: KM12 colon
[35] = system: MALME-3M melanoma
[36] = system: SF-295 CNS
[37] = system: NCI-H522 lung
[38] = system: NCI-H23 lung
[39] = system: SK-MEL-5 melanoma
[40] = system: DLD-1 colon
[41] = system: SF-268 CNS
[42] = system: UACC-62 melanoma
[43] = system: M14 melanoma
[44] = system: CAKI-1 renal
[45] = system: NCI-H226 lung
[46] = system: SK-OV-3 ovarian
[47] = system: HCC-2998 colon
[48] = system: SW-620 colon
[49] = system: OVCAR-8 ovarian
[50] = system: U251 CNS
[51] = system: DMS 273 small cell lung
[52] = system: HCT-15 colon
[53] = system: IGROV1 ovarian
[54] = system: ACHN renal
[55] = system: M19-MEL melanoma
[56] = system: SR leukemia
[57] = system: HOP-18 NSCLC
[58] = system: HOP-92 NSCLC
[59] = system: HL-60(TB) leukemia

CC(C)(CN1CCCCC1)C(=O)CC(SCCN)c1ccc(Cl)cc1 (stereo not drawn)
TGI [1]: 5.19 µM | TGI [2]: 5.19 µM | TGI [3]: 5.43 µM | TGI [4]: 4.53 µM | TGI [5]: 13.2 µM | TGI [6]: 3.24 µM | TGI [7]: 12.8 µM | TGI [8]: 5.43 µM | TGI [9]: > 100 µM | TGI [10]: 5.07 µM | TGI [11]: 3.86 µM | TGI [12]: 10.1 µM | TGI [13]: 5.59 µM | TGI [14]: 10.2 µM | TGI [15]: 4.54 µM | TGI [16]: 4.21 µM | TGI [17]: 3.21 µM | TGI [18]: 5.94 µM | TGI [19]: 4.72 µM | TGI [20]: 13.3 µM | TGI [21]: 3.96 µM | TGI [22]: 3.42 µM | TGI [23]: 4.1 µM | TGI [24]: 6.65 µM | TGI [25]: 3.33 µM | TGI [26]: 13 µM | TGI [27]: 4.85 µM | TGI [28]: 3.32 µM | TGI [29]: 14.3 µM | TGI [30]: 7.61 µM | TGI [31]: 7.41 µM | TGI [32]: 8.9 µM | TGI [33]: 3.43 µM | TGI [34]: 5.23 µM | TGI [35]: 11.6 µM | TGI [36]: 12.4 µM | TGI [37]: 4.8 µM | TGI [38]: 5.8 µM | TGI [39]: 3.25 µM | TGI [40]: 3.35 µM | TGI [41]: 9.36 µM | TGI [42]: 3.56 µM | TGI [43]: 3.63 µM | TGI [44]: 5.85 µM | TGI [45]: 10.1 µM | TGI [46]: 7.83 µM | TGI [47]: 3.76 µM | TGI [48]: 3.94 µM | TGI [49]: 5.45 µM | TGI [50]: 11.7 µM | TGI [51]: 4.96 µM | TGI [52]: 4.53 µM | TGI [53]: 8.48 µM | TGI [54]: 9.85 µM | TGI [55]: 7.39 µM

N#CC(/C(=N/NC(N)=S)C(=O)Nc1cccc(Cl)c1)c1ccccc1 (stereo not drawn)
TGI [1]: > 100 µM | TGI [2]: > 100 µM | TGI [3]: > 100 µM | TGI [4]: > 100 µM | TGI [5]: > 100 µM | TGI [6]: > 100 µM | TGI [7]: > 100 µM | TGI [8]: > 100 µM | TGI [9]: > 100 µM | TGI [10]: > 100 µM | TGI [11]: > 100 µM | TGI [12]: > 100 µM | TGI [13]: > 100 µM | TGI [14]: > 100 µM | TGI [15]: > 100 µM | TGI [16]: > 100 µM | TGI [17]: > 100 µM | TGI [19]: > 100 µM | TGI [20]: > 100 µM | TGI [21]: > 100 µM | TGI [22]: > 100 µM | TGI [23]: > 100 µM | TGI [24]: > 100 µM | TGI [25]: > 100 µM | TGI [26]: > 100 µM | TGI [56]: > 100 µM | TGI [57]: > 100 µM | TGI [28]: > 100 µM | TGI [29]: > 100 µM | TGI [30]: > 100 µM | TGI [31]: > 100 µM | TGI [33]: > 100 µM | TGI [34]: > 100 µM | TGI [35]: > 100 µM | TGI [36]: > 100 µM | TGI [37]: > 100 µM | TGI [38]: > 100 µM | TGI [39]: > 100 µM | TGI [40]: > 100 µM | TGI [41]: > 100 µM | TGI [42]: > 100 µM | TGI [43]: > 100 µM | TGI [44]: > 100 µM | TGI [45]: > 100 µM | TGI [46]: > 100 µM | TGI [58]: > 100 µM | TGI [47]: > 100 µM | TGI [48]: > 100 µM | TGI [49]: > 100 µM | TGI [50]: > 100 µM | TGI [51]: > 100 µM | TGI [59]: > 100 µM | TGI [52]: > 100 µM | TGI [53]: > 100 µM | TGI [54]: > 100 µM | TGI [55]: > 100 µM

CC(=O)SC(SC(C)=O)SC(C)=O
TGI [1]: 81 µM | TGI [2]: > 100 µM | TGI [3]: > 100 µM | TGI [4]: > 100 µM | TGI [5]: > 100 µM | TGI [6]: 82.9 µM | TGI [7]: > 100 µM | TGI [8]: > 100 µM | TGI [9]: > 100 µM | TGI [10]: > 100 µM | TGI [12]: > 100 µM | TGI [13]: > 100 µM | TGI [14]: > 100 µM | TGI [15]: > 100 µM | TGI [16]: > 100 µM | TGI [17]: > 100 µM | TGI [18]: > 100 µM | TGI [19]: > 100 µM | TGI [20]: > 100 µM | TGI [21]: > 100 µM | TGI [22]: > 100 µM | TGI [24]: > 100 µM | TGI [25]: > 100 µM | TGI [26]: > 100 µM | TGI [27]: > 100 µM | TGI [57]: > 100 µM | TGI [28]: > 100 µM | TGI [29]: > 100 µM | TGI [30]: > 100 µM | TGI [31]: > 100 µM | TGI [32]: > 100 µM | TGI [33]: > 100 µM | TGI [34]: > 100 µM | TGI [35]: > 100 µM | TGI [37]: 45.2 µM | TGI [38]: > 100 µM | TGI [39]: > 100 µM | TGI [40]: > 100 µM | TGI [41]: > 100 µM | TGI [42]: > 100 µM | TGI [43]: > 100 µM | TGI [45]: > 100 µM | TGI [46]: > 100 µM | TGI [47]: > 100 µM | TGI [48]: > 100 µM | TGI [49]: > 100 µM | TGI [50]: > 100 µM | TGI [51]: > 100 µM | TGI [59]: > 100 µM | TGI [52]: > 100 µM | TGI [53]: > 100 µM | TGI [54]: > 100 µM | TGI [55]: > 100 µM

COc1cc(C2C(C(=O)O)=C(COC(C)=O)Oc3cc4c(cc32)OCO4)cc(OC)c1OC(C)=O (stereo not drawn)
TGI [1]: > 100 µM | TGI [2]: > 100 µM | TGI [3]: > 100 µM | TGI [4]: > 100 µM | TGI [6]: > 100 µM | TGI [7]: > 100 µM | TGI [8]: > 100 µM | TGI [9]: > 100 µM | TGI [10]: > 100 µM | TGI [11]: > 100 µM | TGI [12]: > 100 µM | TGI [13]: > 100 µM | TGI [14]: > 100 µM | TGI [15]: > 100 µM | TGI [17]: > 100 µM | TGI [18]: > 100 µM | TGI [19]: > 100 µM | TGI [20]: > 100 µM | TGI [21]: > 100 µM | TGI [22]: > 100 µM | TGI [23]: > 100 µM | TGI [26]: > 100 µM | TGI [27]: > 100 µM | TGI [57]: > 100 µM | TGI [28]: > 100 µM | TGI [29]: > 100 µM | TGI [30]: > 100 µM | TGI [31]: > 100 µM | TGI [32]: > 100 µM | TGI [33]: > 100 µM | TGI [35]: > 100 µM | TGI [36]: > 100 µM | TGI [38]: > 100 µM | TGI [39]: > 100 µM | TGI [40]: > 100 µM | TGI [42]: > 100 µM | TGI [43]: > 100 µM | TGI [44]: > 100 µM | TGI [46]: > 100 µM | TGI [58]: > 100 µM | TGI [48]: > 100 µM | TGI [49]: > 100 µM | TGI [50]: > 100 µM | TGI [51]: > 100 µM | TGI [59]: > 100 µM | TGI [52]: > 100 µM | TGI [53]: > 100 µM | TGI [54]: > 100 µM | TGI [55]: > 100 µM

From PubChem BioAssay (NCI)
